Measured values from patent US20040087561A1, “Treatment of sexual dysfunction” (priority 2000, published 2004).
Where two headings read alike, the source gives them in different places.

Tests used:
human NMB receptor (BB1) = target: T1, human NMB receptor (BB1) (Homo sapiens, UniProt P28336); assay: BB1 binding assay ([125I][Tyr4]bombesin, CHO-K1 cell membranes)
T1 construct: expressed in transfected cells; host or cells: CHO-K1
Protocol: In the following experiments, measurement of BB1 and BB2 binding was as follows. CHO-K1 cells stably expressing cloned human NMB (for (BB1 assay) and GRP receptors (for BB2 assay) were routinely grown in Ham's F12 culture medium supplemented with 10% foetal calf serum and 2 mM glutamine. For binding experiments, cells were harvested by trypsinization, and stored frozen at −70° C. in Ham's F12 culture medium containing 5% DMSO until required. On the day of use, cells were thawed rapidly, diluted with an excess of culture medium, and centrifuged for 5 minutes at 2000 g. Cells were resuspended in 50 mM Tris-HCl assay buffer (pH 7.4 at 21° C., containing 0.02% BSA, 40 μg/mL bacitracin, 2 μg/mL chymostatin, 4 μg/mL leupeptin, and 2 μM phosphoramidon), counted, and polytronned (setting 5, 10 sec) before centrifuging for 10 minutes at 28,000 g. The final pellet was resuspended in assay buffer to a final cell concentration of 1.5×10^5/mL. For binding assays, 200 μL aliquots of membranes were incubated with [^125I][Tyr^4]bombesin (<0.1 nM) in the presence and absence of test compounds (final assay volume 250 μL) for 60 minutes and 90 minutes for NMB and GRP receptors, respectively. Nonspecific binding was defined by 1 μM bombesin. Assays were terminated by rapid filtration under vacuum onto Whatman GF/C filters presoaked in 0.2% PEI for >2 hours, and washed 50 mM Tris-HC (pH 6.9 at 21° C.; 6×1 mL). Radioactivity bound was determined using a gamma counter.
All competition data was analysed using nonlinear regression utilizing iterative curve-plotting procedures in Prism® (GraphPad Software Inc., San Diego, USA). IC50 values were corrected to Ki values using the Cheng-Prusoff equation (Cheng Y., PrusoffW. H., Biochem. Pharmacol. 22: 3099-3108, 1973).

[1] = tested on: ovariectomised female Sprague Dawley rats; assay: Female rat sexual receptivity (lordosis quotient); type: in vivo; conditions: for lordosis quotient (LQ) compared to LQ before administration: quinelorane 6.25 μg/kg s.c., 90 min
Protocol: (§1) Ovariectomised adult female Sprague Dawley rats (180-200 g, from Charles River) were housed in groups of 6 in a reversed lighting system of 12 h light:dark (lights off 7.00-19.00 h). Two weeks after ovariectomy they were used for sexual activity tests. The experiments started at least 5 h into the dark period.
Compound (1) was dissolved in 100% β-cyclodextrin and then diluted with saline to a final solution of 50% 2-hydroxypropyl-β-cyclodextrin. It was administered intraperitoneally (i.p.) at a dose of 10 mg/kg, in a dosing volume of 1 ml/kg. Quinelorane (6.25 μg/kg) was dissolved in water and administered s.c. as positive control. Forty eight hours before testing, ovariectomised female rats (as described above), were primed with 5 μg oestradiol benzoate dissolved in corn oil and injected subcutaneously. […] The females were placed with a series of vigorous male rats and subjected to 10 mounts.
The lordotic response of the animal was recorded and expressed as a percentage of the mounts (i.e. lordosis quotient, LQ), as previously described. Animals showing LQ<20 were considered non-receptive and were included in the study. Each rat was tested prior to administration of the compound and then tested similarly post-injection. The pre-treatment times were 1 h for Compound (1) and vehicle (50% β-cyclodextrin, i.p.) or 90 min for quinelorane.
The above compound was dissolved in PEG200 vehicle and administered orally. Quinelorane dihydrochloride (LY 163,502, 6.25 μg/kg) was dissolved in water and administered subcutaneously (s.c.), as a positive control. Both compounds were administered in a 1 ml/kg volume.
Forty eight hours before tests, the animals were primed with 5 μg oestradiol benzoate (Sigma Chemical. Co. Ltd., UK) dissolved in corn oil and injected subcutaneously. The females were placed with a series of vigorous male rats and subjected to 10 mounts. The lordotic response of the animal was recorded and expressed as a percentage of the mounts (i.e. lordosis quotient, LQ). […] Animals showing higher LQ were not included in the study. Each rat was tested prior to administration of the compound and then tested similarly at 1 h and 90 min post-injection of the above compound or quinelorane respectively.

Sprague Dawley male rats = assay: Sexual behaviour of sexually dysfunctional (fluoxetine-treated) male rats; type: in vivo, rat; conditions: fluoxetine 20 mg/kg i.p. 3 days (vs vehicle+vehicle); day 4 Compound (1) 15 mg/kg or yohimbine 2 mg/kg i.p. 1 h before test (vs fluoxetine+vehicle)
Protocol: Sprague Dawley male rats (Charles River, UK) were kept, 4 rats per cage, in a reversed lighting regime (12:12 hours, lights off at 5.00 h), with free access to food and water. The rats were pre-selected by being presented with a receptive female at […], i.e. every third day (haying 2 clear days between presentations) until completing 6-7 trials of baseline determination. The animals showing consistently vigorous behaviour (ejaculatory latencies <300 s) were chosen for further experiments. Animals were treated for 3 consecutive days with either vehicle (water) or fluoxetine (20 mg/kg, i.p., in a 2 ml/kg dosing volume). On the fourth day, the animals treated with water received vehicle (veh+veh) and the animals treated with fluoxetine received one of the three following treatments: Compound (1) (15 mg/kg, dissolved in 50% 2-hydroxypropyl-β-cyclodextrin in saline), vehicle (cyclodextrine), or yohimbine (2 mg/kg dissolved in water). All treatments were administered i.p. in a 1 ml/kg volume, 1 h before tests.
For all the sexual behaviour tests, the males were placed in an observation arena (50-60 cm diameter), starting 5 hours into the dark cycle and observed under red illumination. Three to 4 minutes after placing the male in the arena, a receptive female (ovariectomised, bearing a 7 mm Silastic implant of oestradiol benzoate) was introduced to the arena and the following parameters noted: Mount Latency: time (in seconds) taken between introduction of female and first mount. A maximum time of 15 minutes (900 seconds) was allowed, and the test terminated if no mounts were recorded within that time (FIG. 16), Ejaculation Latency: time (in seconds) taken from first intromission to ejaculation. A maximum time of 30 minutes (1800 seconds) was given, and the test terminated if ejaculation was not achieved in that time (FIG. 17), Percentage of males achieving ejaculation within 30 minutes was calculated (FIG. 18).
A one-way ANOVA followed by Dunnett's t test was used to compare the fluoxetine+vehicle group and other groups for mount and ejaculatory latencies. Percentage of animals ejaculating was analysed using a Chi-square test followed by Fisher's test. (*: P<0.05, **: P<0.01, ***: P<0.001; n=15-19).

[2] = tested on: ovariectomised female Sprague Dawley rats; assay: Female rat sexual proceptivity (time investigating male vs female stimulus); type: in vivo; conditions: for MED, percentage of time spent investigating the male stimulus (proceptivity) / percentage of time spent investigating the male stimulus (proceptivity): 1 h before test
Protocol: as §1
Tests were carried out in a circular arena of 90 cm diameter, surrounded by a 30 cm high wall. Two small cages with wire-mesh front (15×15 cm) are fixed into the wall such that the front of the cage is <> with the wall and the 2 cages are opposite each other. They contained two stimuli animals: an intact sexually experienced male and a receptive female (ovariectomised, primed with 5 μg oestradiol benzoate dissolved in corn oil and injected subcutaneously 48 hours before the test and with 0.5 mg of progesterone four hours before the test). Sexually naive test and control animals were used. Forty eight hours before the tests, both the test and control animals were primed with 5 μg oestradiol benzoate. For animals used as positive controls, progesterone (0.5 mg/0.1 ml) was dissolved in corn oil and administered subcutaneously (s.c.), 4 h before the test. Test and control animals were introduced one at a time for 10 minute periods into the arena. During the 10 min test, the time that the test or positive control animal spent investigating each stimulus animal was noted. The arena was thoroughly cleaned between animals. The position of the male/female stimuli boxes was randomised between animals, in order to avoid place preference. The difference in the percentage of time spent investigating the male minus the female stimuli was calculated, out of the total time spent investigating stimuli animals.
Compound (1) was dissolved in 100% β-cyclodextrin and then diluted with saline to a final solution of 50% 2-hydroxypropyl-β-cyclodextrin. It was administered intraperitoneally (i.p.) at doses of 3 and 10 mg/kg, in a dosing volume of 1 ml/kg, 1 h before tests. Progesterone (0.5 mg/0.1 ml) was dissolved in corn oil and administered subcutaneously (s.c.), 4 h before test, as a positive control.
Ovariectomised adult female Sprague Dawley rats (180-200 g) were housed in groups of 5 in a reversed lighting system of 12 h light:dark (lights off 5.00-17.00 h). They were used for the experiments at least two weeks after ovariectomy. Forty eight hours before tests, the animals were primed with oestradiol benzoate (5 μg/0.1 ml in corn oil, s.c.). On day 1, progesterone (0.5 mg/0.1 ml, in corn oil, s.c.) was administered to one of the groups 4 h before tests, as a positive control. Compound (1) (15 mg/kg, i.p.) was administered in 50% 2-hydroxypropyl-β-cyclodextrin, 1 h before tests. The test lasted 10 minutes and was carried out as described before. The difference in the percentage of time spent investigating the male minus the female stimuli was calculated, out of the total time spent investigating stimuli animals. Animals were submitted to a test on day 1 and on day 15. From day 2 to 14 the Compound (1) group received a daily injection of the compound (15 mg/kg, i.p.), while both the vehicle and the progesterone groups received an injection of vehicle. On day 15 the test took place again, as described for day 1.
Ovariectomised female rats (Sprague Dawley, obtained from Charles River, UK) were stereotaxically implanted (coordinates 0.89 mm behind Bregma, 1.3 mm lateral and 2.5 mm vertical) with stainless steel cannulae (6 mm long, O.D. 0.75 mm), held in place with dental cement. Animals were housed in groups of three and returned to a reversed lighting system of 12 h light:dark (lights off 5.00-17.00 h). Correct placement of the cannulae was assessed post-mortem. Rats were used for tests two weeks after ovariectomy (one week after cannulation). The experiments started at least 5 h into the dark period. […]

[3] = Example 31, Compound (2) 10-100 mg/kg oral in PEG200, 1 h
[4] = oral, 30-100 mg/kg in PEG 200 vehicle
[5] = p.o., 3-30 mg/kg in 0.5% methyl cellulose

T1 sequence (P28336 whole entry): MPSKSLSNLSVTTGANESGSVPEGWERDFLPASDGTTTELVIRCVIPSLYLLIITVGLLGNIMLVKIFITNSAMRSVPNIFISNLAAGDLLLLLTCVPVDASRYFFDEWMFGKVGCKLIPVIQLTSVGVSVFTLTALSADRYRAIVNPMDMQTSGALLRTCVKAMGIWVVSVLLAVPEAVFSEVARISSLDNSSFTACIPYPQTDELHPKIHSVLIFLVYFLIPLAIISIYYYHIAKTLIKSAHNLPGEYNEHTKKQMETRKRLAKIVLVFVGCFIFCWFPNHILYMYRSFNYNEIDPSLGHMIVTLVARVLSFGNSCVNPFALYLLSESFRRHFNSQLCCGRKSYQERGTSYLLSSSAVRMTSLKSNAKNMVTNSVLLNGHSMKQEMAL

## C-Dimethylamino-N—{(S)-2-(1H-indol-3-yl)-1-methyl-1-[(1-pyridin-2-yl-cyclohexyl-methyl)-carbamoyl]-ethyl}-benzamide [Example 48]
Human NMB receptor (BB1); Table 3
  IC50: 716 nM

## Cc1ccccc1CC(=O)N[C@@](C)(Cc1c[nH]c2ccccc12)C(=O)NCC1(c2ccccn2)CCCCC1 [Example 51, (S)-3-(1H-Indol-3-yl)-2-methyl-N-(1-pyridin-2-yl-cyclohexylmethyl)-2-(2-o-tolyl-ethanoylamino)-propionamide]
Human NMB receptor (BB1); Table 3
  IC50: 944 nM

## CCCN1CCC[C@@H]2Cc3nc(N)ncc3C[C@H]21 [quinelorane, reference compound]
[1]; Example 2, Compound (1) 10 mg/kg i.p., 1 h
  lordosis quotient (LQ) compared to LQ before administration: significantly (P<0.01) increased the LQ
[1]; [3]
  lordosis quotient (LQ) compared to LQ before administration: significantly (P<0.01) increased the LQ

## COC(=O)[C@@H]1[C@H]2C[C@H]3c4[nH]c5ccccc5c4CCN3C[C@@H]2CC[C@@H]1O [Yohimbine, yohimbine]
Sprague Dawley male rats
  Ejaculation latency: did not reach significance
  Mount latency: did not reach significance
  percentage of animals ejaculating (within 30 minutes): did not reach significance

## COc1ccc(C2(CNC(=O)[C@](C)(Cc3c[nH]c4ccccc34)Nc3nc(-c4ccc([N+](=O)[O-])cc4)co3)CCCCC2)nc1 [Example 9, (S)-3-(1H-Indol-3-yl)-N-[1-(5-methoxy-pridin-2-yl)-cyclohexylmethyl]-2-methyl-2-[4-(4-nitro-phenyl)-oxazol-2-ylamino]-propionamide]
[2]; MED in 0.5% methyl cellulose vs MED in PEG200, p.o.
  increase in potency compared to the oral results in the PEG200 vehicle: 10 fold
[2]; [4]
  MED, percentage of time spent investigating the male stimulus (proceptivity): 100 mg/kg
  percentage of time spent investigating the male stimulus (proceptivity): increased the percentage of time spent investigating the male stimulus
[2]; [5]
  MED, percentage of time spent investigating the male stimulus (proceptivity): 10 mg/kg
  percentage of time spent investigating the male stimulus (proceptivity): increased the percentage of time spent investigating the male stimulus
[1]; [3]
  lordosis quotient (LQ) compared to LQ before administration: dose-dependently (10-100 mg/kg) increased the LQ
[1]; Example 31, single oral administration 10-100 mg/kg in PEG200, 1 h after administration
  MED, increase of lordosis quotient (LQ): 100 mg/kg

## C[C@@](Cc1c[nH]c2ccccc12)(NS(=O)(=O)c1cc(Cl)sc1Cl)C(=O)NCC1(c2ccccn2)CCCCC1 [Example 157]
Human NMB receptor (BB1)
  IC50: 214 nM
